The text below walks through data of ChEMBL document CHEMBL1133825, “3-D-QSAR/CoMFA and recognition models of benzimidazole derivatives at the 5-HT(4) receptor” (Bioorg Med Chem Lett, 2001).

The target in assay [1] is T1, 5-hydroxytryptamine receptor 4 (Rattus norvegicus, UniProt Q62758). In words: In vitro binding affinity to 5-hydroxytryptamine 4 receptor in rat striatum membrane. The assay is classed as cell membranes.
The target in assay [2] is T1, 5-hydroxytryptamine receptor 4. In words: pKi against 5-hydroxytryptamine 4 receptor in rat striatum membrane. The assay is classed as cell membranes.

T1 sequence (Q62758 whole entry): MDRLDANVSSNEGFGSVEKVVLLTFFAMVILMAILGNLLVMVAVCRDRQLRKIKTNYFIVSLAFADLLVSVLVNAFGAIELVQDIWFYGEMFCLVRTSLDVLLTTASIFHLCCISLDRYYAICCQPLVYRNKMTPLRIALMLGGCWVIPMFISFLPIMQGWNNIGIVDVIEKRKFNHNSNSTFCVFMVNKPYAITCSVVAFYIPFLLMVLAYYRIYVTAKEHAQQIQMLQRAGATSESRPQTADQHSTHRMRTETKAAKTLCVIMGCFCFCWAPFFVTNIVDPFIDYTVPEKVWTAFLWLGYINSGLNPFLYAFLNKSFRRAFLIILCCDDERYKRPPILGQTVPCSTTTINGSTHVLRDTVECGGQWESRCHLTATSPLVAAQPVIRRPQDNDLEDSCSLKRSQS

As for `CC(C)CN1CCC(CNC(=O)c2cc(Cl)cc3[nH]cnc23)CC1`, the Ki in assay [1] was 0.29 nM; in assay [2] it was 0.288 nM.

`CN1CCC(OC(=O)c2cccc3nc[nH]c23)CC1`: the inhibition constant Ki in assay [1] and in assay [2] was > 10000 nM each time.

With `CC(C)CN1CCC(CNC(=O)c2cc(Cl)cc3c2ncn3Cc2ccccc2)CC1`, the Ki in assay [1] and in assay [2] was 69.2 nM throughout.

`CCCCN1CCC(COC(=O)c2cc(Cl)cc3[nH]cnc23)CC1`: the values for the Ki in assay [1] and in assay [2] were 2.9 nM and 2.88 nM, respectively.

On to `CCCCN1CCC(CNC(=O)c2cc(Br)c(N)c3nc[nH]c23)CC1`, for which the results for the Ki in assay [1] and in assay [2] were 27.8 nM and 27.5 nM, respectively.

Regarding `CS(=O)(=O)NCCN1CCC(CNC(=O)c2cccc3[nH]cnc23)CC1`, the Ki was 11.4 nM in assay [1] and 11.5 nM in assay [2].

For `CS(=O)(=O)NCCN1CCC(CNC(=O)c2cc(Cl)cc3[nH]cnc23)CC1`, the Ki in assay [1] and in assay [2] was 0.11 nM each time.

Consider `CCCCN1CCC(CNC(=O)c2cc(Br)c([N+](=O)[O-])c3[nH]cnc23)CC1`, for which the results for the Ki in assay [1] and in assay [2] were 48.2 nM and 47.9 nM, respectively.

For `CCN1CCC(NC(=O)c2cccc3[nH]cnc23)CC1`, the inhibition constant (Ki) in assay [1] and in assay [2] was > 1000 nM throughout.

For the molecule `CCCN1CCC(NC(=O)c2cccc3nc[nH]c23)CC1`, the Ki in assay [1] and in assay [2] was > 1000 nM each time.

On to `CS(=O)(=O)NCCN1CCC(COC(=O)c2cccc3nc[nH]c23)CC1`, for which the Ki is 26.1 nM in assay [1] and 26.3 nM in assay [2].

As for `CCCCN1CCC(NC(=O)c2cccc3nc[nH]c23)CC1`, the inhibitory constant (Ki) is 290 nM in assay [1] and 288 nM in assay [2].

Turning to `CCCCN1CCC(COC(=O)c2cccc3nc[nH]c23)CC1`, the inhibitory constant (Ki) is 24.6 nM in assay [1] and 24.5 nM in assay [2].

Turning to `CS(=O)(=O)NCCN1CCC(COC(=O)c2cc(Cl)cc3[nH]cnc23)CC1`, the figures for the Ki in assay [1] and in assay [2] were 2.3 nM and 2.29 nM, respectively.

As for `CCCCN1CCC(CNC(=O)c2cc(Cl)cc3[nH]cnc23)CC1`, the Ki in assay [1] was 0.32 nM; in assay [2] it was 0.324 nM.

With `CCCCN1CCC(CNC(=O)c2cc(Br)cc3[nH]cnc23)CC1`, the Ki is 0.64 nM in assay [1] and 0.646 nM in assay [2].

For `CCCCN1CCC(CNC(=O)c2ccc(N)c3[nH]cnc23)CC1`, the Ki in assay [1] and in assay [2] was 115 nM each time.

In the case of `CCCCN1CCC(CNC(=O)c2cc(Cl)c(N)c3[nH]cnc23)CC1`, the Ki in assay [1] and in assay [2] was 22.4 nM throughout.

On to `CC(C)CN1CCC(CNC(=O)c2cc(Cl)cc3c2ncn3C)CC1`, for which the results for the Ki in assay [1] and in assay [2] were 2.2 nM and 2.19 nM, respectively.

In the case of `CCCCCN1CCC(CNC(=O)c2cc(Cl)cc3[nH]cnc23)CC1`, the Ki in assay [1] is 0.54 nM; in assay [2] it was 0.537 nM.

Regarding `CCCCN1CCC(CNC(=O)c2cc(Cl)c([N+](=O)[O-])c3nc[nH]c23)CC1`, the Ki in assay [1] was 44.6 nM; in assay [2], 44.7 nM.

As for `CCCCN1CCC(CNC(=O)c2cccc3[nH]cnc23)CC1`, the Ki in assay [1] was 13.7 nM; in assay [2], 13.8 nM.
